Assay results from the supplement of paper PMC10307832.

Key:
Assay in all cases: relative viability (nuclei count vs DMSO), 5 days (fraction); higher = more cells survive
[1] = compound: C1=CC=C(C(=C1)C2=CC=C(C=C2)C3=CSC4=C3C(=C(C(=O)N4)C#N)O)O + CC(=O)c1c(C)c2cnc(Nc3ccc(N4CCNCC4)cn3)nc2n(C2CCCC2)c1=O [Palbociclib] (partner 0.5 µM)
In short: (§1)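 Cells from lung cancer lines were seeded into 1536-well plates and, one day later, dosed by pin tool. Treatments were either a single drug or a fixed dose of an anchor drug with five library-drug doses (not always all listed) in √10 steps. After 5 days, nuclei were stained in a one-step fixation (final 0.05% Triton X-100, 1% formaldehyde, 1 ug/ml Hoechst) and counted on 4× images, and relative viability is the treated-to-vehicle nuclei ratio, as the median of duplicate plates.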

TGX 221 + Trametinib = compound: CC1=CN2C(=O)C=C(N=C2C(=C1)C(C)NC3=CC=CC=C3)N4CCOCC4 [TGX 221] + CC(=O)Nc1cccc(-n2c(=O)n(C3CC3)c(=O)c3c(Nc4ccc(I)cc4F)n(C)c(=O)c(C)c32)c1 [Trametinib] (partner 0.02 µM)
In short: as §1

TGX 221 + Alpelisib = compound: CC1=CN2C(=O)C=C(N=C2C(=C1)C(C)NC3=CC=CC=C3)N4CCOCC4 [TGX 221] + Cc1nc(NC(=O)N2CCC[C@H]2C(N)=O)sc1-c1ccnc(C(C)(C)C(F)(F)F)c1 [Alpelisib] (partner 2 µM)
In short: as §1

[2] = compound: O=C(CCCCCCNC(=O)c1cnc(N(c2ccccc2)c2ccccc2)nc1)NO [Ricolinostat] + CCNC(=O)c1noc(-c2cc(C(C)C)c(O)cc2O)c1-c1ccc(CN2CCOCC2)cc1 [Luminespib] (partner 0.01 µM)
In short: as §1

| Cell Line | relative viability ([1]; first compound 0.08 µM) | relative viability ([1]; first compound 0.253 µM) | relative viability ([1]; first compound 0.8 µM) | relative viability ([1]; first compound 2.53 µM) | relative viability ([1]; first compound 8 µM) | relative viability (TGX 221 + Trametinib; first compound 0.08 µM) | relative viability (TGX 221 + Trametinib; first compound 0.253 µM) | relative viability (TGX 221 + Trametinib; first compound 0.8 µM) | relative viability (TGX 221 + Trametinib; first compound 2.53 µM) | relative viability (TGX 221 + Trametinib; first compound 8 µM) | relative viability (TGX 221 + Alpelisib; first compound 0.253 µM) | relative viability (TGX 221 + Alpelisib; first compound 0.8 µM) | relative viability (TGX 221 + Alpelisib; first compound 2.53 µM) | relative viability (TGX 221 + Alpelisib; first compound 8 µM) | relative viability ([2]; first compound 0.08 µM) | relative viability ([2]; first compound 0.253 µM) | relative viability ([2]; first compound 0.8 µM) | relative viability ([2]; first compound 2.53 µM) | relative viability (TGX 221 + Alpelisib; first compound 0.08 µM) |
| --- | --- | --- | --- | --- | --- | --- | --- | --- | --- | --- | --- | --- | --- | --- | --- | --- | --- | --- | --- |
| 201T | 0.381 | 0.361 | 0.362 | 0.38 | 0.387 | 0.704 | 0.728 | 0.703 | 0.703 | 0.697 | 0.942 | 0.943 | 0.872 | 0.827 | 0.94 | 1.04 | 1.09 | 1.08 |  |
| A549 |  |  |  |  |  |  |  |  |  |  | 0.52 | 0.542 | 0.377 | 0.28 |  |  |  |  | 0.63 |
| A-427 | 0.551 | 0.535 | 0.504 | 0.553 | 0.543 | 0.686 | 0.747 | 0.771 | 0.627 | 0.7 | 1.11 | 1.14 | 0.976 | 1.08 |  | 0.81 | 0.605 | 0.698 | 1.04 |
| ABC-1 | 0.615 | 0.921 | 0.804 | 0.591 | 0.433 |  |  |  |  |  | 0.858 | 0.996 | 0.99 | 0.838 | 0.537 | 0.761 | 0.527 | 0.261 | 1.03 |
| BEN | 0.582 | 0.514 | 0.481 | 0.474 | 0.507 | 1.03 | 0.969 | 0.93 | 0.998 | 0.891 | 0.942 | 0.899 | 0.899 | 0.88 | 0.228 | 0.371 | 0.402 | 0.326 | 0.982 |
| CAL-12T | 0.429 | 0.62 | 0.455 | 0.405 | 0.437 | 0.272 | 0.299 | 0.316 | 0.33 | 0.325 | 1.1 | 1.21 | 0.852 | 0.64 | 0.497 | 0.378 | 0.542 | 0.303 | 1.17 |
| COR-L23 | 0.297 | 0.384 | 0.374 | 0.323 | 0.243 | 0.507 | 0.592 | 0.573 | 0.577 | 0.523 | 0.659 | 0.759 | 0.722 | 0.742 | 0.518 | 0.571 | 0.661 | 0.427 | 0.807 |
| COR-L 105 | 0.431 | 0.403 | 0.419 | 0.401 | 0.42 | 0.501 | 0.431 | 0.482 | 0.43 | 0.419 | 0.838 | 0.697 | 0.609 | 0.361 |  | 0.746 | 0.765 | 0.749 | 1.02 |
| Calu-6 |  |  |  |  |  |  |  |  |  |  | 0.8 | 0.948 | 0.917 | 0.883 |  |  |  |  | 0.986 |
| ChaGo-K-1 | 0.839 | 0.913 | 1.01 | 1.01 | 0.836 | 0.952 | 0.871 | 0.857 | 0.922 | 0.843 |  |  |  |  | 0.679 | 0.633 | 0.561 | 0.577 |  |
| EBC-1 |  |  |  |  |  |  |  |  |  |  | 0.526 | 0.426 | 0.321 | 0.32 |  |  |  |  | 0.738 |
| EKVX | 0.312 | 0.365 | 0.512 | 0.793 | 0.334 | 0.3 | 0.322 | 0.291 | 0.273 | 0.304 | 0.716 | 0.648 | 0.5 | 0.477 | 0.74 | 0.783 |  | 0.902 | 0.77 |
| EMC-BAC-2 | 0.523 | 0.595 | 0.507 | 0.539 | 0.51 | 0.826 | 1.02 | 0.897 | 0.864 | 0.792 | 0.597 | 0.679 | 0.623 | 0.629 | 1.05 | 1.14 | 1.12 | 1.11 | 0.735 |
| EPLC-272H | 0.329 |  | 0.281 | 0.336 | 0.304 | 0.246 | 0.269 | 0.271 | 0.242 | 0.254 | 0.828 | 0.799 |  | 0.62 | 0.159 | 0.266 | 0.292 | 0.161 | 0.877 |
| H3255 | 0.311 | 0.346 | 0.294 | 0.31 | 0.319 | 0.583 | 0.537 | 0.538 | 0.576 | 0.529 | 0.581 | 0.534 | 0.448 | 0.378 | 0.534 | 0.881 | 0.833 | 0.704 | 0.568 |
| HARA | 0.228 | 0.211 | 0.218 | 0.234 | 0.279 | 0.722 | 0.655 | 0.715 | 0.614 | 0.429 | 0.659 | 0.803 | 0.574 | 0.584 | 0.787 | 0.606 | 0.478 | 0.349 | 0.778 |
| HCC-15 | 0.786 | 0.867 | 0.766 | 0.897 | 0.617 | 0.373 | 0.335 | 0.368 | 0.376 | 0.337 | 0.788 | 0.958 | 0.831 | 0.776 | 0.3 | 0.28 | 0.382 | 0.497 | 0.893 |
| HCC-44 | 1.08 | 1.05 | 0.995 | 0.979 | 0.964 | 1.07 | 1.06 | 1.14 | 1.13 | 0.945 | 0.667 | 0.632 | 0.597 | 0.473 | 0.98 | 1.04 | 1.02 | 0.911 | 0.784 |
| HCC-78 | 0.463 | 0.477 | 0.45 | 0.602 | 0.413 | 0.735 | 0.586 | 0.757 | 0.551 | 0.469 | 0.23 |  | 0.2 | 0.175 |  |  |  |  | 0.299 |
| HCC-366 |  | 0.371 | 0.357 | 0.509 | 0.395 | 0.288 | 0.325 | 0.311 | 0.235 | 0.239 | 0.234 | 0.245 | 0.0984 | 0.127 |  |  |  |  | 0.307 |
